Experimental data from PMC4102551, “Screening and Characterisation of Antimicrobial Properties of Semisynthetic Betulin Derivatives” (PLoS ONE, 2014).

How the values were obtained:
E. coli ATCC 25922 = test: Broth microdilution assay, E. coli; format: cell-based, Escherichia coli; details: 50 µM, 24 h, inhibition of growth, mean ± SD
Protocol: (§1) Clinically used antimicrobial agents were selected based on international guidelines for antimicrobial testing and were utilised as reference compounds in the antimicrobial assays. The compounds were purchased from Sigma, Fluka and ICN Biomedicals. Stock solutions of the reference compounds were prepared either in double distilled sterile MilliQ water or in DMSO. Water solutions were sterilised through a 0.22 µm filter (VWR International). […] During the primary screening, these reference compounds were used as positive controls at the determined MIC on every plate.
(§2) Gram-negative strains Escherichia coli (ATCC 25922), Enterobacter aerogenes (ATCC 13048) and Pseudomonas aeruginosa (ATCC 27853), Gram-positive strains Staphylococcus aureus (ATCC 25923) and Enterococcus faecalis (ATCC 29212), and fungal strain Candida albicans (ATCC 90028) were obtained from Microbiologics Inc., and used for the antimicrobial screening. Strains were selected according to the guidelines set for clinical laboratories by Clinical and Laboratory Standards Institute [CLSI, formerly National Committee on Clinical Laboratory Standards [22]] and the European Committee on Antimicrobial Susceptibility Testing (EUCAST). Bacterial strains were grown on Mueller Hinton II Agar (MHA) (BBL, BD) and Mueller Hinton II broth (MHB) (BBL, BD), whereas Candida was initiated on Sabouraud Dextrose Agar (SDA) (Difco, BD) plates. Media were prepared into MilliQ water according to manufacturer’s instruction and autoclaved at 121°C for 15 min. Bacteria were plated on MHA plates and incubated at 37°C for 16–18 h. Bacterial suspension for the assays was prepared by subculturing the bacteria into MHB and by incubating at 37°C for 16–20 h at 110 rpm prior to the assay. Candida strain was grown on SDA plates at 27°C for 16–18 h and suspended into sterile 0.9% saline for the assay.
(§3) Antimicrobial screening assays were performed by broth microdilution method following the guidelines of CLSI and EUCAST. Bacterial suspensions were prepared as mentioned earlier and diluted with MHB to obtain a final inoculum of 5×10^5 colony-forming units (cfu)/mL in the assay for all the bacteria (based on OD620 values previously calibrated against plate counts). Candida suspension was prepared into sterile 0.9% saline solution as stated earlier. […] Assays were carried out in clear 96-well microtitre plates and initiated by dispensing an equal volume of microbial suspension and sample solution diluted into the assay medium into the wells. The plates were incubated for 24 h at 37°C (for Candida the incubation was at 35°C for 48 h) with agitation. Absorbance was measured at 620 nm with Victor plate reader (Wallac 1420, Perkin Elmer) at 0, 4 and 24 h with the bacteria, and at 0, 24 and 48 h with Candida. The antimicrobial activity of the samples was calculated from the absorbance values by comparing to the controls, and expressed as a percentage inhibition of growth. All the betulin derivatives were first assayed at the single concentration of 50 µM (two separate experiments, each with three replicates). […] The MIC90 value was expressed as the lowest concentration of compound that inhibited the microbial growth by >90%. The MIC90 results are means of three replicates from two separate experiments.

P. aeruginosa ATCC 27853 = test: Broth microdilution assay, P. aeruginosa; format: cell-based, Pseudomonas aeruginosa; details: 50 µM, 24 h, inhibition of growth, mean ± SD
Protocol: as §1, §2, §3

E. faecalis ATCC 29212 = test: Broth microdilution assay, E. faecalis; format: cell-based, Enterococcus faecalis; details: 50 µM, 24 h, inhibition of growth, mean ± SD
Protocol: as §1, §2, §3

E. aerogenes ATCC 13048 = test: Broth microdilution assay, E. aerogenes; format: cell-based, Enterobacter aerogenes; details: 50 µM, 24 h, inhibition of growth, mean ± SD
Protocol: as §1, §2, §3

C. albicans ATCC 90028 = test: Broth microdilution assay, C. albicans; format: cell-based, Candida albicans; details: 50 µM, 48 h at 35°C, inhibition of growth, mean ± SD
Protocol: as §1, §2, §3

Huh-7 cells = test: in vitro; format: cell-based, human; details: 24 h exposure; for Cytotoxicity (%) Huh-7 cells: 50 µM, ATP content, 5% FBS
Protocol: Huh-7 cells (derived from human hepatocellular carcinoma) were obtained as a gift from Prof. Ralf Bartenschlager (University of Heidelberg, Germany) and used for assessing the cytotoxicity against mammalian cells. HL cells (a heteroploid cell line used for propagating respiratory viruses) were used as a host cell line in the host-pathogen co-culture assay. […] Both cell lines were cultured at 37°C, 5% CO2 and 95% humidity.
The effect of the betulin derivatives on metabolic activity of Huh-7 cells was evaluated by measuring the intracellular ATP content of the cells after 24 h exposure to the compounds. In brief, cells were seeded at 20000 cells/well on white-walled microplates (PerkinElmer) and incubated at 37°C, 5% CO2 and 95% humidity. After culturing the cells overnight, the medium was replaced with the assay media (5% FBS) containing the sample and the cells were incubated for 24 h. Polymyxin B sulphate (15000 IU/mL) was used as a positive control. Following the incubation period, Promega’s CellTiter-Glo Cell Viability Assay was used to determine the intracellular ATP levels according to the manufacturer’s instructions. Cells were washed with 100 µL 6.7 mM PBS, pH 7.4 and 50 µL of fresh assay media and 50 µL of the CellTiter-Glo reagent were added into the wells. After 2 min shaking, followed by 10 min incubation at RT, luminometric signal was measured using Varioskan Flash plate reader (Thermo Fisher Scientific).

S. aureus ATCC 25923 = test: Broth microdilution assay, S. aureus; format: cell-based, Staphylococcus aureus; details: 50 µM, 24 h, inhibition of growth, mean ± SD
Protocol: as §1, §2, §3

Compound	Inhibitory effect (%) E. coli ATCC 25922 (E. coli ATCC 25922) [%]	Inhibitory effect (%) P. aeruginosa ATCC 27853 (P. aeruginosa ATCC 27853) [%]	Inhibitory effect (%) E. faecalis ATCC 29212 (E. faecalis ATCC 29212) [%]	Inhibitory effect (%) E. aerogenes ATCC 13048 (E. aerogenes ATCC 13048) [%]	Inhibitory effect (%) C. albicans ATCC 90028 (C. albicans ATCC 90028) [%]	Cytotoxicity (%) Huh-7 cells (Huh-7 cells) [%]	Inhibitory effect (%) S. aureus ATCC 25923 (S. aureus ATCC 25923) [%]	IC50 cytotoxicity Huh-7 cells (positive control) (Huh-7 cells; ATP assay) [IU/mL]
C=C(C)[C@@H]1CC[C@]2(COC(=O)C3C(C=C(C)C)C3(C)C)CC[C@]3(C)[C@H](CC[C@@H]4[C@@]5(C)CC[C@H](O)C(C)(C)[C@@H]5CC[C@]43C)[C@@H]12 (stereo partly drawn) [Compound 3, 28-O-chrysanthemoylbetulin]	0.3±1.7	4.4±1.4	46.9±6.0	10.6±0.5	35.4±3.8	-5.8±2.5	-23.2±11	–
C=C(C)C1CCC2(C=O)CCC3(C)C(CCC4C5(C)CCC(=O)C(C)(C)C5CCC43C)C12 (stereo not drawn) [Compound 22]	-1.2±0.5	4.5±1.6	16.3±19.0	6.0±4.6	-18.7±15.1	4.1±17.7	0.1±1.5	–
CC(=O)OCC12CCC3(C(C)C)C1=C1C(CC4C5(C)CCC(OC(C)=O)C(C)(C)C5CCC4(C)C1(C)CC2)n1c(=O)n(-c2ccc(F)cc2)c(=O)n13 (stereo not drawn) [Compound 37]	5.0±8.8	4.6±0.7	48.2±7.7	17.7±2.2	11.7±9.0	0.8±3.4	6.5±0.9	–
CC(=O)OCC12CCC3(C(C)C)C1=C1C(CC4C5(C)CCC(OC(C)=O)C(C)(C)C5CCC4(C)C1(C)CC2)n1c(=O)n(-c2ccc4c(c2)CCC4)c(=O)n13 (stereo not drawn) [Compound 36]	2.6±2.1	5.8±0.7	62.0±1.9	14.5±1.3	10.7±4.8	7.9±2.2	6.1±1.7	–
Polymyxin B sulphate [reference compound]	–	–	–	–	–	–	–	9361
CC(C)C(=O)OCC12CCC3(C(C)C)C1=C1C(CC4C5(C)CCC(OC(=O)C(C)C)C(C)(C)C5CCC4(C)C1(C)CC2)n1c(=O)n(C)c(=O)n13 (stereo not drawn) [Compound 47]	-3.8±4.2	1.4±0.8	47.8±1.3	9.6±1.7	12.0±12.7	-4.9±2.2	2.9±1.0	–
